Source: ChEMBL document CHEMBL3045558, “Synthesis and primary evaluation of quinoxalinone derivatives as potent modulators of multidrug resistance” (Med Chem Res, 2009)

Legend:
[1] = test system: K562; assay: Ratio of compound IC50 to adriamycin IC50 for Homo sapiens (human) K562 cells after 24 to 72 hr by MTT assay; type: functional
[2] = molecular target: ATP-dependent translocase ABCB1 (Homo sapiens, UniProt P08183); assay: Inhibition of p-glycoprotein in Homo sapiens (human) K562/A02 cells assessed as reduction of adriamycin IC50 for cytotoxic effect at IC10 treated 12 hr before adriamycin challenge measured after 24 to 72 hr by MTT assay; type: cell-based
[3] = Cytotoxicity against Homo sapiens (human) K562/A02 cells after 24 to 72 hr by MTT assay; type: cell-based

Sequence of ATP-dependent translocase ABCB1 (P08183 whole entry): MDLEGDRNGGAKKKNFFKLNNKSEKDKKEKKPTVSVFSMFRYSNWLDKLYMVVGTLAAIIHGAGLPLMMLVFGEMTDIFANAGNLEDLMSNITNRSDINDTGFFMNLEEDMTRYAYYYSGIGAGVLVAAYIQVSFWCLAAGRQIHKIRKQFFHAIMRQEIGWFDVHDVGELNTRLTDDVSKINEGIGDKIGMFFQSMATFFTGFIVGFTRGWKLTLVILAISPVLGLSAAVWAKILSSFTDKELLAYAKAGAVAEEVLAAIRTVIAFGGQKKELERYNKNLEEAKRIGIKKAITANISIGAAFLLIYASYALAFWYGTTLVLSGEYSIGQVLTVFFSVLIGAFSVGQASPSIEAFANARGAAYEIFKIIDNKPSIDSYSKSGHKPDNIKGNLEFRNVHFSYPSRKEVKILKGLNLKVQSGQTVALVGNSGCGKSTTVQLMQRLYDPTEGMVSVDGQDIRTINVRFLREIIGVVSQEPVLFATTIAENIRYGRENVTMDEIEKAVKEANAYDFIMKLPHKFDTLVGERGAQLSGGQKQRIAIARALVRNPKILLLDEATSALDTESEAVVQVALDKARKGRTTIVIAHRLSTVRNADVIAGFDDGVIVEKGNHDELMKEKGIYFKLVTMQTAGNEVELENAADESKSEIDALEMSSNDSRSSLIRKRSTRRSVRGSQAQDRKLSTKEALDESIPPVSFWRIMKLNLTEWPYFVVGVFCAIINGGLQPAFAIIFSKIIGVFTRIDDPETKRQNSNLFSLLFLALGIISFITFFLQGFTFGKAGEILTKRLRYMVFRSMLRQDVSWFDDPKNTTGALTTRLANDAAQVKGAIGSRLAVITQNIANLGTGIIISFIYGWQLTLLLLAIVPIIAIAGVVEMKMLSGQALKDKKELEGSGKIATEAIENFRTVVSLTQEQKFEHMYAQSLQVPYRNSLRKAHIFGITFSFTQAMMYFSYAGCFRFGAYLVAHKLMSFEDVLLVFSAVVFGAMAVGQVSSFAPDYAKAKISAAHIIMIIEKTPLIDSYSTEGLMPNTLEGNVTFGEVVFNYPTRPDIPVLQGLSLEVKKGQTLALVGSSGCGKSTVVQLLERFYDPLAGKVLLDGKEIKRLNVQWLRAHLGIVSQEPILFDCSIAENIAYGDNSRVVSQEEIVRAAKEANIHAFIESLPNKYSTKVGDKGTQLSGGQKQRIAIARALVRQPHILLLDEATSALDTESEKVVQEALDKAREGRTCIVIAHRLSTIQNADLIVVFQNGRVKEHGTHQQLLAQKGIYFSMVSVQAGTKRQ

Row | Structure (SMILES) | Ratio IC50 [1] | fold change (FC) [2] | IC10 [3] [nM]
1 | COC(=O)[C@H](Cc1ccccc1)NC(=O)Cn1c(=O)c(C)nc2ccccc21 | 1.25 | 2.01 | 13190
2 | COC(=O)[C@@H]1C[C@@H](O)CN1C(=O)Cn1c(=O)c(C)nc2ccccc21 | 1.15 | 4.82 | 2890
3 | CCOC(=O)CC[C@H](NC(=O)Cn1c(=O)c(C)nc2ccccc21)C(=O)OCC | 1.15 | 4.13 | 2480
4 | COC(=O)[C@H](Cc1ccccc1)NC(=O)Cn1c(=O)c(C)nc2cc(F)c(F)cc21 | 1.15 | 1.05 | 2410
5 | Cc1ccccc1NC(=O)Cn1c(=O)c(C)nc2ccccc21 | 1.15 | 4.01 | 1850
6 | Cc1nc2ccccc2n(CC(=O)Nc2ccc(F)c(F)c2)c1=O | 1.07 | 5.3 | 2570
7 | COc1ccc(NC(=O)Cn2c(=O)c(C)nc3ccccc32)cc1OC | 1.15 | 3.75 | 1420
8 | COc1cc2nc(C)c(=O)n(CC(=O)Nc3ccccc3)c2cc1OC | 1.15 | 4.59 | 2840
9 | Cc1nc2ccccc2n(CC(=O)Nc2ccccc2)c1=O | 1.07 | 2.45 | 34100
10 | Cc1nc2ccccc2n(CC(=O)Nc2ccc(Br)cc2)c1=O | 0.94 | 1.24 | 2700
11 | Cc1nc2cc(F)c(F)cc2n(CC(=O)Nc2ccccc2)c1=O | 1 | 2.41 | 1520
12 | Cc1ccc(NC(=O)Cn2c(=O)c(C)nc3ccccc32)cc1 | 1 | 3.55 | 1630
13 | CCOC(=O)CNC(=O)Cn1c(=O)c(C)nc2ccccc21 | 1.07 | 2.37 | 16500
14 | CCOC(=O)Cn1c(=O)c(C)nc2ccccc21 | 1 | 1.5 | 4060
15 | Cc1nc2ccccc2n(CC(=O)Nc2ccc(Cl)c(Cl)c2)c1=O | 1.07 | 1.62 | 140
16 | Cc1nc2ccccc2n(CC(=O)Nc2ccc(F)c(Cl)c2)c1=O | 1 | 1.83 | 2910
17 | COC(=O)[C@H](Cc1ccccc1)NC(=O)Cn1c(=O)c(C)nc2cc(OC)c(OC)cc21 | 1 | 1.82 | 11380
